Where a SMILES comes first, the peptide text is derived from it. The star is where a group is joined. Cbz = O=C(OCc1ccccc1)*
Tests used:
[1] = biological target: T1, Proteasome Macropain subunit MB1 (Homo sapiens, UniProt P28074); assay: Inhibition of 20S constitutive proteosome beta5c subunit (unknown origin) assessed as substrate hydrolysis using Suc-Leu-Leu-Val-Tyr-AMC as fluorogenic substrate at 100 uM
T1 sequence (P28074 whole entry): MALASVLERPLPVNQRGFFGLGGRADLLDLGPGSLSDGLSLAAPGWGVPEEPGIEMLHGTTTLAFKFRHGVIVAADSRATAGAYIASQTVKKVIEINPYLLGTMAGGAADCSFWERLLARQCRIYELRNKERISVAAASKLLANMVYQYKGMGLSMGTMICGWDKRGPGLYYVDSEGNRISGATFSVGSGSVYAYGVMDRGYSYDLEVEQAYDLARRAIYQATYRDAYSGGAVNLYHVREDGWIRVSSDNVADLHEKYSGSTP

[2] = Inhibition of 20S immuno proteosome beta5i subunit (unknown origin) assessed as substrate hydrolysis using Suc-Leu-Leu-Val-Tyr-AMC as fluorogenic substrate at 100 uM; set-up: species or system Homo sapiens
[3] = Inhibition of 20S immuno proteosome beta5i subunit (unknown origin) assessed as substrate hydrolysis using Z-Leu-Leu-Leu-al as substrate; set-up: species or system Homo sapiens
[4] = Cytotoxicity against human MM1.R cells assessed as reduction in cell vitality incubated for 24 hrs by MTT assay; assay type: functional, cell-based; conditions: MM.1R
Homo sapiens = species on record: Homo sapiens; assay: Reversible inhibition of 20S immuno proteosome beta 5i subunit (unknown origin) assessed as substrate hydrolysis using Suc-Leu-Leu-Val-Tyr-AMC as substrate at 0.25 to 25 uM by fluorescence based assay; conditions: dose 0.25-25 µM, time <= 600.0 sec, TDE = time-dependent effect

Structure (SMILES) | Ki [1] [µM] | Ki [2] [µM] | Ki [3] [µM] | inhibition (Homo sapiens) | EC50 [4] [µM]
CC(C)C[C@@H](C=O)NC(=O)[C@H](CC(C)C)NC(=O)[C@H](CC(C)C)NC(=O)OCc1ccccc1 [MG-132] (Cbz-Leu-Leu-Leu-aldehyde) |  |  | 0.07 |  | 
CC(C)CCNC(=O)Cn1ccc2ccc(Br)cc2c1=O |  |  |  |  | 17.8
COc1cc2ccn(C/C=C/C(=O)NCc3ccccc3)c(=O)c2cc1OC |  | 65 |  |  | 
COc1cc2ccn(C/C=C/C(=O)NCCCc3ccccc3)c(=O)c2cc1OC | 10.6 | 64 |  |  | 

Further compounds by falling Ki [2], results first:

Ki [1] [µM] | Ki [2] [µM] | Ki [3] [µM] | inhibition (Homo sapiens) | Structure (SMILES) | EC50 [4] [µM]
23 | 55 |  |  | COc1cc2ccn(C/C=C/C(=O)NC3CCCCC3)c(=O)c2cc1OC | 
49 | 50 |  |  | COc1cc2ccn(C/C=C/C(=O)Nc3ccccc3)c(=O)c2cc1OC | 
19 | 49 |  |  | CCCCNC(=O)/C=C/Cn1ccc2cc(OC)c(OC)cc2c1=O | 
60 | 45 |  |  | COc1cc2ccn(C/C=C/C(=O)NCCc3ccccc3)c(=O)c2cc1OC | 
1.18 | 1.91 |  | Tde | COc1cc2ccn(C/C=C/C(=O)NCCC(C)C)c(=O)c2cc1OC | 

— ChEMBL document CHEMBL5143533, “Development of isoquinolinone derivatives as immunoproteasome inhibitors” (Bioorg Med Chem Lett, 2022)
